The source of these data is US10118918B2, “PRMT5 inhibitors and uses thereof” (Epizyme, Inc., priority 2012, dated 2018).

One assay addresses PRMT5/MEP50 (Homo sapiens (Human), UniProt O14744). Nature of the assay: PRMT5 Biochemical Assay (PRMT5/MEP50 enzyme assay on peptide substrate, 3H-SAM Flashplate). Particulars: PRMT5/MEP50 4 nM, 3H-SAM 75 nM, peptide 40 nM. The text has this:
S-adenosylmethionine (SAM), S-adenosylhomocysteine (SAH), bicine, KCl, Tween20, dimethylsulfoxide (DMSO), bovine skin gelatin (BSG), and Tris(2-carboxyethyl)phosphine hydrochloride solution (TCEP) were purchased from Sigma-Aldrich at the highest level of purity possible. ^3H-SAM was purchase from American Radiolabeled Chemicals with a specific activity of 80 Ci/mmol. 384-well streptavidin Flashplates were purchased from PerkinElmer.
Peptide representative of human histone H4 residues 1-15 was synthesized with a C-terminal linker-affinity tag motif and a C-terminal amide cap by 21st Century Biochemicals. The peptide was high high-performance liquid chromatography (HPLC) purified to greater than 95% purity and confirmed by liquid chromatography mass spectrometry (LC-MS). The sequence was Ac-[…][K-Biot]-amide (SEQ ID NO.: 3).
Full-length human PRMT5 (NM_006109.3) transcript variant 1 clone was amplified from a fetal brain cDNA library, incorporating flanking 5′ sequence encoding a FLAG tag ([…]) (SEQ ID NO.: 4) fused directly to Ala 2 of PRMT5. Full-length human MEP50 (NM_024102) clone was amplified from a human testis cDNA library incorporating a 5′ sequence encoding a 6-histidine tag (MHHHHHH) (SEQ ID NO.: 5) fused directly to Arg 2 of MEP50. The amplified genes were sublconed into pENTR/D/TEV (Life Technologies) and subsequently transferred by Gateway™ attL x attR recombination to pDEST8 baculvirus expression vector (Life Technologies).
Recombinant baculovirus and Baculovirus-Infected Insect Cells (BIIC) were generated according to Bac-to-Bac kit instructions (Life Technologies) and Wasilko, 2006, respectively. Protein over-expression was accomplished by infecting exponentially growing Spodoptera frugiperda (SF9) cell culture at 1.2×10^6 cell/ml with a 5000 fold dilution of BIIC stock. Infections were carried out at 27° C. for 72 hours, harvested by centrifugation, and stored at −80° C. for purification.
Flag-PRMT5/6His-MeP50 was eluted with 300 mM Imidazole in the same buffer. The purity of recovered protein was 87%. Reference: Wasilko, D. J. and S. E. Lee: “TIPS: titerless infected-cells preservation and scale-up” Bioprocess J., 5 (2006), pp. 29-32.
General Procedure for PRMT5/MEP50 Enzyme Assays on Peptide Substrates.
The assays were all performed in a buffer consisting of 20 mM Bicine (pH=7.6), 1 mM TCEP, 0.005% BSG, and 0.002% Tween20, prepared on the day of use. Compounds in 100% DMSO (1 ul) were spotted into a polypropylene 384-well V-bottom plates (Greiner) using a Platemate Plus outfitted with a 384-channel head (Thermo Scientific). DMSO (1 ul) was added to Columns 11, 12, 23, 24, rows A-H for the maximum signal control and 1 ul of SAH, a known product and inhibitor of PRMT5/MEP50, was added to columns 11, 12, 23, 24, rows I-P for the minimum signal control. A cocktail (40 ul) containing the PRMT5/MEP50 enzyme and the peptide was added by Multidrop Combi (Thermo-Fisher). The compounds were allowed to incubate with PRMT5/MEP50 for 30 min at 25 degrees Celsius, then a cocktail (10 ul) containing ^3H-SAM was added to initiate the reaction (final volume=51 ul). The final concentrations of the components were as follows: PRMT5/MEP50 was 4 nM, ^3H-SAM was 75 nM, peptide was 40 nM, SAH in the minimum signal control wells was 100 uM, and the DMSO concentration was 1%. The assays were stopped by the addition of non-radioactive SAM (10 ul) to a final concentration of 600 uM, which dilutes the ^3H-SAM to a level where its incorporation into the peptide substrate is no longer detectable. 50 ul of the reaction in the 384-well polypropylene plate was then transferred to a 384-well Flashplate and the biotinylated peptides were allowed to bind to the streptavidin surface for at least 1 hour before being washed three times with 0.1% Tween20 in a Biotek ELx405 plate washer. […]

For assay [1], the system named is symmetric di-methyl arginine in Z-138 cells. Nature of the assay: Z-138 Methylation Assay (In Cell Western for symmetric di-methyl arginine and DNA content). The format is cell-based. Particulars: 96 hours incubation, read-out: ICW EC50. The text has this: [formula] Where top and bottom are the normally allowed to float, but may be fixed at 100 or 0 respectively in a 3-parameter fit. The Hill Coefficient normally allowed to float but may also be fixed at 1 in a 3-parameter fit. Y is the % inhibition and X is the compound concentration. Z-138 Methylation Assay
Z-138 suspension cells were purchased from ATCC (American Type Culture Collection, Manassas, Va.). RPMI/Glutamax medium, penicillin-streptomycin, heat inactivated fetal bovine serum, and D-PBS were purchased from Life Technologies, Grand Island, N.Y., USA. Odyssey blocking buffer, 800CW goat anti-rabbit IgG (H+L) antibody, and Licor Odyssey infrared scanner were purchased from Licor Biosciences, Lincoln, Nebr., USA. Symmetric di-methyl arginine antibody was purchased from EMD Millipore, Billerica, Mass., USA. 16% Paraformaldehyde was purchased from Electron Microscopy Sciences, Hatfield, Pa., USA.
Z-138 suspension cells were maintained in growth medium (RPMI 1640 supplemented with 10% v/v heat inactivated fetal bovine serum and 100 units/mL penicillin-streptomycin) and cultured at 37° C. under 5% CO2.
Cell Treatment, in Cell Western (ICW) for Detection of Symmetric Di-Methyl Arginine and DNA Content.
Z-138 cells were seeded in assay medium at a concentration of 50,000 cells per mL to a 384-well cell culture plate with 50 μL per well. Compound (100 nL) from 384 well source plates was added directly to 384 well cell plate. Plates were incubated at 37° C., 5% CO2 for 96 hours. After four days of incubation, 40 μL of cells from incubated plates were added to poly-D-lysine coated 384 well culture plates (BD Biosciences 356697). Plates were incubated at room temperature for 30 minutes then incubated at 37° C., 5% CO2 for 5 hours. After the incubation, 40 μL per well of 8% paraformaldehyde in PBS (16% paraformaldahyde was diluted to 8% in PBS) was added to each plate and incubated for 30 minutes. Plates were transferred to a Biotek 405 plate washer and washed 5 times with 100 μL per well of wash buffer (IX PBS with 0.1% Triton X-100 (v/v)). Next 30 μL per well of Odyssey blocking buffer were added to each plate and incubated 1 hour at room temperature. Blocking buffer was removed and 20 μL per well of primary antibody was added (symmetric di-methyl arginine diluted 1:100 in Odyssey buffer with 0.1% Tween 20 (v/v)) and plates were incubated overnight (16 hours) at 4° C. Plates were washed 5 times with 100 μL per well of wash buffer. Next 20 μL per well of secondary antibody was added (1:200 800CW goat anti-rabbit IgG (H+L) antibody, 1:1000 DRAQ5 (Biostatus limited) in Odyssey buffer with 0.1% Tween 20 (v/v)) and incubated for 1 hour at room temperature. The plates were washed 5 times with 100 μL per well wash buffer then 1 time with 100 μL per well of water. Plates were allowed to dry at room temperature then imaged on the Licor Odyssey machine which measures integrated intensity at 700 nm and 800 nm wavelengths. Both 700 and 800 channels were scanned.
First, the ratio for each well was determined by:
Each plate included fourteen control wells of DMSO only treatment (minimum inhibition) as well as fourteen control wells for maximum inhibition treated with 3 μM of a reference compound (Background wells). The average of the ratio values for each control type was calculated and used to determine the percent inhibition for each test well in the plate. Reference compound was serially diluted three-fold in DMSO for a total of nine test concentrations, beginning at 3 μM. Percent inhibition was determined and IC50 curves were generated using triplicate wells per concentration of compound. […]

Like-named read-outs stand apart in the source and are kept apart here.

Chain of PRMT5/MEP50 (O14744 other isoform, or with tags, fused parts or gaps): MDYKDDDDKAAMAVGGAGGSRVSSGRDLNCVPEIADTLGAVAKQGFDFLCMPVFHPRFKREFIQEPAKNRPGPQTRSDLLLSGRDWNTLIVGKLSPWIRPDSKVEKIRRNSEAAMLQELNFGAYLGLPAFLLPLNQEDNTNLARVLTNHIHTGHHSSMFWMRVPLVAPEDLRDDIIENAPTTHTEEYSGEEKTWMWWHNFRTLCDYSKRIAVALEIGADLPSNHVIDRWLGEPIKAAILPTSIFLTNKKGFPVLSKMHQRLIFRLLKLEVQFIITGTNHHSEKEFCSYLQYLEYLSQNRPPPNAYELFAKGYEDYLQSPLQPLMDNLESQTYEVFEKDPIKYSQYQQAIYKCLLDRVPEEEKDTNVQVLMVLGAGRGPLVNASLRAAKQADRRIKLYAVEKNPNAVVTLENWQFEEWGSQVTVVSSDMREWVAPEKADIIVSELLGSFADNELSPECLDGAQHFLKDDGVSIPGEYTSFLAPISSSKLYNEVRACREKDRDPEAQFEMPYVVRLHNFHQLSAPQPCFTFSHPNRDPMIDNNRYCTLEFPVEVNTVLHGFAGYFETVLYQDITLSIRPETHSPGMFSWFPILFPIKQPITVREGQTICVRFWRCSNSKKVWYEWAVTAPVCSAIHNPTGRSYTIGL
Chain of PRMT5/MEP50 (Q9BQA1 other isoform, or with tags, fused parts or gaps partner): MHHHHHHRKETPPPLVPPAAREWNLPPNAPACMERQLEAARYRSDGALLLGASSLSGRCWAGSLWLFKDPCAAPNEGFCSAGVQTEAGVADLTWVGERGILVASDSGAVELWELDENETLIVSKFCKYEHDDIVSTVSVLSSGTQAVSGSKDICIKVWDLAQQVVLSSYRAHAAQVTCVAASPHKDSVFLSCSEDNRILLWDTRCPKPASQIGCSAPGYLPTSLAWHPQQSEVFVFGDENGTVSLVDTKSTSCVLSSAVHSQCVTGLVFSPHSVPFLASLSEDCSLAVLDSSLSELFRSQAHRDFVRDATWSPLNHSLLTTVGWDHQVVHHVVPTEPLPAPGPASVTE

With “2-(2-(1H-pyrazol-3-yl)phenoxy)-N-(2-hydroxy-3-(isoindolin-2-yl)propyl)acetamide [compound 8]”, the IC50 on PRMT5/MEP50 lay within 0.101 to 1 µM. In assay [1], the EC50 is 0.101 to 1 µM.

`Cn1cnc2ccc(-c3cccc(OCC(O)CN4Cc5ccccc5C4)c3)cc21` (stereo not drawn) [compound 9, 1-(isoindolin-2-yl)-3-(3-(1-methyl-1H-benzo[d]imidazol-6-yl)phenoxy)propan-2-ol]: the IC50 on PRMT5/MEP50 lay in the range of 1 to 10 µM.

For `CC(C)(C)OC(=O)Nc1cccc(C(=O)NCC(O)CN2Cc3ccccc3C2)c1` (stereo not drawn) [compound 11, tert-butyl (3-((2-hydroxy-3-(isoindolin-2-yl)propyl)carbamoyl)phenyl)carbamate], the IC50 on PRMT5/MEP50 was in the range of 0.101 to 1 µM. Besides, the EC50 in assay [1] (Homo sapiens) lay in the range of 1 to 10 µM.

With `CS(=O)(=O)c1ccccc1OCC(=O)NCC(O)CN1Cc2ccccc2C1` (stereo not drawn) [compound 12, N-(2-hydroxy-3-(isoindolin-2-yl)propyl)-2-(2-(methylsulfonyl)phenoxy)acetamide], the IC50 at PRMT5/MEP50 was 0.101 to 1 µM. The EC50 in assay [1] (Homo sapiens) lay within 0.101 to 1 µM.

As for `O=C(COc1cccc2cccnc12)NC[C@@H](O)CN1Cc2ccccc2C1` [compound 16, (R)—N-(2-hydroxy-3-(isoindolin-2-yl)propyl)-2-(quinolin-8-yloxy)acetamide], the IC50 on PRMT5/MEP50 is 1 to 10 µM.

For `COc1ccc(Cn2cnc3ccc(-c4ccc(OCC(O)CN5Cc6ccccc6C5)cc4)cc32)cc1` (stereo not drawn) [compound 18], the IC50 at PRMT5/MEP50 is 1 to 10 µM.

With `CN1CCOc2cccc(OCC(=O)NC[C@@H](O)CN3Cc4ccccc4C3)c21` [compound 22], the 50% effective concentration (EC50) in assay [1] (Homo sapiens) lay within 1 to 10 µM.

For the compound `O=C(NC[C@@H](O)CN1Cc2ccccc2C1)c1cccc(NC2CCOCC2)c1` [compound 24], the IC50 at PRMT5/MEP50 is below 0.1 µM.

In the case of `O=C(NC[C@H](O)CN1Cc2ccccc2C1)c1cncc(OC2CCOCC2)c1` [compound 31], the EC50 in assay [1] (Homo sapiens) is 1 to 10 µM.

Take `CC(=O)N1CCC(Nc2cc(C(=O)NC[C@H](O)CN3CCCCc4ccccc43)ccn2)CC1` [compound 51]: on PRMT5/MEP50, the IC50 was above 10 µM.

Take `O=C(NCCCN1Cc2ccccc2C1)c1cc(NC2COC2)ncn1` [compound 52]: the IC50 at PRMT5/MEP50 is above 10 µM.

Turning to `CC(=O)N1CCC(Nc2cc(C(=O)NC[C@H](O)CN3CCCc4ccccc4C3)ccn2)CC1` [compound 53], the IC50 at PRMT5/MEP50 fell in the range of 1 to 10 µM. Besides, the EC50 in assay [1] (Homo sapiens) is above 1 µM.

In the case of “N-(2-hydroxy-3-(isoindolin-2-yl)propyl)-3-((tetrahydro-2H-pyran-4-yl)amino)benzamide [compound 6]”, the IC50 at PRMT5/MEP50 is above 10 µM.

As to “tert-butyl (3-((2-hydroxy-3-(isoindolin-2-yl)propyl)carbamoyl)phenyl)carbamate [compound 2]”, the IC50 at PRMT5/MEP50 was in the range of 1 to 10 µM.

As usually defined, the IC50 is the concentration that inhibits the measured activity by half. The EC50 is the concentration needed to bring the measured effect to its halfway point.
